Experimental data reported in ChEMBL document CHEMBL1123331, “Synthesis of pyrimidin-2-one nucleosides as acid-stable inhibitors of cytidine deaminase” (J Med Chem, 1986).
pKi: −log10 of the molar value.

Key:
[1] = target: Cytidine deaminase (Mus musculus, UniProt P56389); assay: Compound was tested for the inhibitory constant for mouse kidney cytidine deaminase
[2] = target: T1, Adenosine deaminase (Mus musculus, UniProt P03958); assay: Compound was tested for the inhibitory constant for adenosine deaminase (ADA)
T1 sequence (P03958 whole entry): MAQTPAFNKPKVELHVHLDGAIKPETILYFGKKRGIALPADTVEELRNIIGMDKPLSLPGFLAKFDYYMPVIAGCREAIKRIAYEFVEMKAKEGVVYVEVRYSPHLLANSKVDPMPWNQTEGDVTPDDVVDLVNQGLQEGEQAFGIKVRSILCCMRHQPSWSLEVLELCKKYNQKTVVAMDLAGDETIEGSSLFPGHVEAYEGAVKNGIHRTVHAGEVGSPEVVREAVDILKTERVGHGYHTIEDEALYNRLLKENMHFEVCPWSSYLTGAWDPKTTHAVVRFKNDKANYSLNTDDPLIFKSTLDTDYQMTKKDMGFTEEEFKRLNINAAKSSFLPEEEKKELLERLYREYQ

Cytidine deaminase, sequence (P56389 whole entry): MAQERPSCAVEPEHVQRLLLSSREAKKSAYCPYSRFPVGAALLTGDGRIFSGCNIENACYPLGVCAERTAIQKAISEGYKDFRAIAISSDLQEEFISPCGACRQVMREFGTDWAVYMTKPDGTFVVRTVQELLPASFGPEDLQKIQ

Q: With `O=C1NCC=CN1[C@@H]1O[C@H](CO)[C@@H](O)[C@H]1O` as the molecule, how does the pKi [1] read?
A: 5.40

Q: How did the pKi [1] turn out when `OCC1NC=Nc2c1ncn2[C@@H]1O[C@H](CO)[C@@H](O)[C@H]1O` (stereo partly drawn) was run?
A: 5.00

Q: With `O=C1NC=CCN1C1O[C@H](CO)[C@@H](O)[C@H]1O` (stereo partly drawn) as the molecule, how does the pKi [1] read?
A: 5.40

Q: `O=C1NC(C(O)O)CCN1C1O[C@H](CO)[C@@H](O)[C@H]1O` (stereo partly drawn) was tested. Which pKi [1] did it give?
A: 4.70

Q: `O=c1nc(CO)ccn1C1O[C@H](CO)[C@@H](O)[C@H]1O` (stereo partly drawn) was tested. Which pKi [1] did it give?
A: 4.00

Q: With `O=C1NC(CO)C=CN1C1O[C@H](CO)[C@@H](O)[C@H]1O` (stereo partly drawn) as the molecule, how does the pKi [1] read?
A: 6.40

Q: How did the pKi [1] turn out when `OC[C@H]1O[C@@H](n2cnc3cncnc32)[C@H](O)[C@@H]1O` [NEBULARINE] was run?
A: 5.00

Q: `O=c1ncccn1[C@@H]1O[C@H](CO)[C@@H](O)[C@H]1O` [ZEBULARINE] was tested. Which pKi [2] did it give?
A: 6.00
